# Source: ChEMBL document CHEMBL5244273, “Tuberculosis: An Overview of the Immunogenic Response, Disease Progression, and Medicinal Chemistry Efforts in the Last Decade toward the Development of Potential Drugs for Extensively Drug-Resistant Tuberculosis Strains” (J Med Chem, 2021)
# System: Mycobacterium tuberculosis
# Experiment: Antimycobacterial activity against Mycobacterium tuberculosis H37Rv
# Format: functional
Structure (SMILES),MIC [µg/mL],MIC90 [µM],MIC99 [µM],MIC50 [µg/mL]
NC(=O)N1N=C(c2ccc3oc(S)nc3c2)CC1c1cccs1 (stereo unspecified),12.5,,,
CC(=O)N1N=C(c2ccc3oc(N)nc3c2)CC1c1cccs1 (stereo unspecified),6.25,,,
CC(=O)N1N=C(c2ccc3oc(NC(=O)c4ccccc4)nc3c2)CC1c1cccs1 (stereo unspecified),6.25,,,
CC(=O)N1N=C(c2ccc3oc(-c4ccccn4)nc3c2)CC1c1cccs1 (stereo unspecified),25,,,
COc1ccccc1-c1nc2cc(C3=NN(C(C)=O)C(c4cccs4)C3)ccc2o1 (stereo unspecified),25,,,
CC(=O)N1/C(=C/c2ccc(Oc3ccc(Cl)cc3)cc2)C(=O)c2ccccc21,,6.2,8.4,
CC(=O)N1/C(=C/c2ccc(OCc3ccccc3)cc2)C(=O)c2ccccc21,,1.89,2.58,
CC(=O)N1/C(=C/c2ccc(-c3ccccc3)cc2)C(=O)c2cc(C)ccc21,,> 20,> 20,
CC(=O)N1N=C(c2ccc3oc(S)nc3c2)CC1c1cccs1 (stereo unspecified),6.25,,,
COC(=O)c1c(NC(=O)c2ccc(C)cc2)sc2c1CCCCC2,> 20.2,,,
CCc1c(C)sc(NC(=O)c2c(F)c(F)c(F)c(F)c2F)c1C(=O)OC(C)C,1,,,
CC(=O)N1/C(=C/c2ccc(-c3ccsc3)cc2)C(=O)c2ccccc21,,0.336,0.6,
Sc1nnc(-c2ccccc2I)o1,15.2,,,
CCCC(=O)Nc1nc2cc(C3=NN(C(C)=O)C(c4cccs4)C3)ccc2o1 (stereo unspecified),12.5,,,
CC(=O)Nc1nc2cc(C3=NN(C(C)=O)C(c4cccs4)C3)ccc2o1 (stereo unspecified),25,,,
CC(=O)N1/C(=C/c2ccc(-c3cnn(C)c3)cc2)C(=O)c2ccccc21,,3.16,3.66,
CC(=O)N1N=C(c2ccc3oc(-c4ccccc4Cl)nc3c2)CC1c1cccs1 (stereo unspecified),25,,,
Cc1c(C(N)=O)sc(NC(=O)c2c(F)c(F)c(F)c(F)c2F)c1C(=O)O,78.4,,,
Sc1nnc(-c2ccc(-c3ccccc3)cc2)o1,> 25,,,
COC(=O)c1c(NC(=O)c2ccccc2F)sc2c1CCCCC2,20.2,,,
CC(=O)N1N=C(c2ccc3oc(C(=O)c4ccccc4)nc3c2)CC1c1cccs1 (stereo unspecified),50,,,
COC(=O)c1c(NC(=O)c2c(F)c(F)c(F)c(F)c2F)sc(-c2ccc(Cl)cc2)c1C(=O)OC,3.5,,,
CC(=O)N1N=C(c2ccc3oc(NC(=O)c4cccc(Cl)c4)nc3c2)CC1c1cccs1 (stereo unspecified),12.5,,,
COc1cc(-c2nc3cc(C4=NN(C(C)=O)C(c5cccs5)C4)ccc3o2)cc(OC)c1OC (stereo unspecified),25,,,
Sc1nnc(-c2ccc(Br)cc2)o1,> 25,,,
COC(=O)c1sc(NC(=O)c2c(F)c(F)c(F)c(F)c2F)c(C(=O)ON)c1C,4.9,,,
CC(=O)N1/C(=C/c2cccc(-c3ccccc3)c2)C(=O)c2ccccc21,,4.49,4.94,

Structure (SMILES),MIC [µg/mL],MIC90 [µM],MIC99 [µM],MIC50 [µg/mL]
CC(=O)N1N=C(c2ccc3oc(-c4ccccc4)nc3c2)CC1c1cccs1 (stereo unspecified),25,,,
Oc1cc(O)cc(-c2nnc(S)o2)c1,21,,,
COc1cccc(-c2nc3cc(C4=NN(C(C)=O)C(c5cccs5)C4)ccc3o2)c1 (stereo unspecified),25,,,
CCOC(=O)c1sc(NC(=O)c2c(F)c(F)c(F)c(F)c2F)c(C(=O)OCC)c1C,7.1,,,
O=[N+]([O-])c1ccc([N+](=O)[O-])c(-c2nnc(S)o2)c1,6.7,,,
O=[N+]([O-])c1ccc(F)c(-c2nnc(S)o2)c1,> 25,,,
FC(F)(F)c1ccc(-c2nnc(S)o2)cc1,> 25,,,
COC(=O)c1c(NC(=O)c2c(F)c(F)c(F)c(F)c2F)sc2c1CCC2,2.1,,,
Oc1ccc(-c2nnc(S)[nH]2)cc1O,10.5,,,
NOC(=O)c1c(NC(=O)c2c(F)c(F)c(F)c(F)c2F)sc2c1CCCCC2,15.3,,,
COc1ccc(-c2nnc(S)o2)cc1,20.8,,,
CC(=O)N1N=C(c2ccc3oc(-c4ccncc4)nc3c2)CC1c1cccs1 (stereo unspecified),25,,,
CC(=O)N1/C(=C/c2cccc(-c3ccc(OC(F)(F)F)cc3)c2)C(=O)c2ccccc21,,> 20,> 20,
CC(=O)N1N=C(c2ccc3oc(NC(=O)c4ccccc4Cl)nc3c2)CC1c1cccs1 (stereo unspecified),25,,,
COc1ccc(-c2nc3cc(C4=NN(C(C)=O)C(c5cccs5)C4)ccc3o2)cc1 (stereo unspecified),12.5,,,
CC(=O)N1N=C(c2ccc3oc(-c4cccnc4)nc3c2)CC1c1cccs1 (stereo unspecified),25,,,
CC(=O)N1N=C(c2ccc3oc(NC(=O)C(C)C)nc3c2)CC1c1cccs1 (stereo unspecified),25,,,
CC(=O)N1/C(=C/c2ccc(-c3ccc(OC(F)(F)F)cc3)cc2)C(=O)c2cc(Cl)ccc21,,> 20,> 20,
CC(=O)N1/C(=C/c2ccc(-c3ccc(C(F)(F)F)cc3)cc2)C(=O)c2ccccc21,,2.65,4.3,
CC(=O)N1/C(=C/c2cccc(-c3ccc(C(F)(F)F)cc3)c2)C(=O)c2ccccc21,,11.6,17.5,
CC(=O)N1/C(=C/c2cccc(-c3ccsc3)c2)C(=O)c2ccccc21,,3.19,3.34,
CC(=O)N1/C(=C/c2cccc(-c3ccc(F)cc3)c2)C(=O)c2ccccc21,,5.1,5.66,
CC(=O)N1/C(=C/c2ccc(-c3cnc4ccccc4c3)cc2)C(=O)c2ccccc21,,0.649,0.736,
NOC(=O)c1c(NC(=O)c2c(F)c(F)c(F)c(F)c2F)sc2c1CCC2,10.6,,,
COc1ccccc1C(=O)Nc1nc2cc(C3=NN(C(C)=O)C(c4cccs4)C3)ccc2o1 (stereo unspecified),25,,,
CCn1cc(C(=O)O)c(=O)c2cc(F)c(-n3cccc3)cc21 [IRLOXACIN],,,,8
